According to US8748572B2, “RNase a peptides, fragments and uses thereof” (priority 2006, dated 2014):

B1: hPRI: human placental RNase inhibitor (Boehringer Mannheim) (protein)
chain: SLDIQSLDIQCEELSDARWAELLPLLQQCQVVRLDDCGLTEARCKDISSALRVNPALAELNLRSNELGDVGVHCVLQGLQTPSCKIQKLSLQNCCLTGAGCGVLSSTLRTLPTLQELHLSDNLLGDAGLQLLCEGLLDPQCRLEKLQLEYCSLSAASCEPLASVLRAKPDFKELTVSNNDINEAGVRVLCQGLKDSPCQLEALKLESCGVTSDNCRDLCGIVASKASLRELALGSNKLGDVGMAELCPGLLHPSSRLRTLWIWECGITAKGCGDLCRVLRAKESLKELSLAGNELGDEGARLLCETLLEPGCQLESLWVKSCSFTAACCSHFSSVLAQNRFLLELQISNNRLEDAGVRELCQGLGQPGSVLRVLWLADCDVSDSSCSSLAATLLANHSLRELDLSNNCLGDAGILQLVESVRQPGCLLEQLVLYDIYWSEEMEDRLQALEKDKPSLRVIS

How the values were obtained:
E. coli DH5α = test: bactericidal colony-forming assay, E. coli; assay type: cell-based, Escherichia coli; conditions: free synthetic peptide; for LD99: E. coli
Procedure: FIGS. 5 A & B are graphs showing the bactericidal activity of rRNases A-1 and A-2. In panel (A) E. coli DH5α and in panel (B) S. aureus 502A were re-suspended in 100 mM sodium phosphate buffer, pH 7.4, and incubated with the indicated concentrations of chicken leukocyte RNase A-1 (open squares) and A-2 (closed circles) for 4 h at 37° C., plated on RNase-free LB agar, and grown overnight for colony counts.
RNase A polypeptides and fragments according to the invention that have bactericidal activity are particularly preferred for use in the treatment methods of the invention. The bactericidal and bacteriostatic activity of a particular RNase A polypeptides or fragments can be assessed by known protocols, such as that described in the methods section and the following described protocol, herein referred to as “a standard bacterial colony formation assay.” Bactericidal assays are well-described in the art, and are performed as described previously, and as exemplified in Examples 3-6. Briefly, an aliquot from a single bacterial colony overnight culture grown in Luria-Beitani (LB) broth is diluted 1:100 in sodium phosphate, pH 7.4, collected by centrifugation, and resuspended in sodium phosphate, pH 7.4. An aliquot of bacteria in buffer are incubated for 4 hr at 37° C. with recombinant protein or peptide at concentrations indicated, or diluent control and were then diluted 10, 100, or 1000-fold prior to plating on LB agar for overnight growth for colony counts.
Next, the bactericidal activity of chicken leukocyte RNases were examined using a colony-forming assay as previously described for eosinophil cationic protein [28]. […] E. coli was more susceptible to the bactericidal activity of leukocyte rRNase A-2 than was S. aureus, as 5 μM rRNase A-2 reduced the colony count of E. coli 10^7-fold, while reducing the colony count of S. aureus, only 100-fold. Recombinant RNase A-1 had no effect on colony number of E. coli or S. aureus concentrations up to and including […].
Bactericidal assays were performed as described previously with modifications. Briefly, 100 microliters from a single bacterial colony overnight culture grown in Luria-Bertani (LB) broth was diluted 1:100 in 100 mM sodium phosphate, pH 7.4, collected by centrifugation, and resuspended in 1 ml sodium phosphate, pH 7.4. Ten microliters of bacteria in buffer are incubated for 4 hr at 37° C. with 10 microliters recombinant protein or peptide at concentrations indicated, or diluent control and were then diluted 10, 100, or 1000-fold prior to plating on LB agar for overnight growth for colony counts. All points were determined in triplicate.

isoelectric point = assay type: physicochemical
[1] = system: Salmonella enterica serovar pullorum; test: bactericidal assay on natural pathogen; assay type: cell-based; conditions: free peptide
Source text: FIG. 11 is a graph showing that the domain III peptide is bactericidal for S. enterica serovar pullorum which is a natural pathogen of domestic poultry. At the highest concentration tested, 100 micromolar, RNase A-2 domain III reduces the colony count from 100-1000 fold (2-3 logs).
The bactericidal actions of the A-2 domain sequences on natural pathogens was explored. The bactericidal activity of the leukocyte RNase A-2 domain III peptide on the natural pathogen Salmonella enterica serovar pullorum was determined using the bactericidal assays as previously described. S. enterica is a gram negative pathogen isolated initially from domestic poultry and is as such a natural target pathogen for a bactericidal agent isolated from chicken granulocytes. […] At the highest concentration tested, 100 micromolar, RNase A-2 domain III reduces the colony count from 100-1000 fold (2-3 logs). Thus, the A-2 domain sequences are useful bactericidal agents against natural pathogens.
Bactericidal assays were performed as described previously with modifications. Briefly, 100 microliters from a single bacterial colony overnight culture grown in Luria-Bertani (LB) broth was diluted 1:100 in 100 mM sodium phosphate, pH 7.4, collected by centrifugation, and resuspended in 1 ml sodium phosphate, pH 7.4. […] All points were determined in triplicate.

[2] = system: Gallus gallus leukocyte RNases; test: RNase activity with human placental RNase inhibitor; assay type: biochemical; conditions: preincubation with 200 U hPRI, yeast tRNA substrate, pH 7.0
Procedure: FIGS. 4 A-D are graphs showing the ribonucleolytic activity of recombinant leukocyte RNases. (A) is a graph showing the optimum pH for RNase activity. Enzymatic activity was determined with 50 pmol rRNase A-1 (open squares) and rRNase A-2 (closed circles) that was incubated with 250 μg/ml yeast tRNA in 40 mM sodium phosphate buffer at the pHs indicated. Measurements of A260 per time were converted to pmol/s as described in reference 28 and Methods. (B) is a graph showing the initial rates for RNase activity. Enzymatic activity was determined as described in (A) with 40 mM sodium phosphate buffer, pH 7.0. (C) is a graph showing the substrate preference for RNase activity. […] A260 was measured after precipitation of undigested RNA at each of the time points indicated. […] RNase activity was measured with […] of bovine pancreatic RNase (left) or […] rRNase A-1 and rRNase A-2 (right) with 250 μg/ml of yeast tRNA as substrate with (+) or without (−) 200 U human placental RNase inhibitor (hPR1) in 40 mM sodium phosphate buffer, pH 7.0. […]
The ribonuclease (RNase) assay with yeast tRNA substrate has been described in detail elsewhere. […] In experiments in which the pH optimum was to be determined, 40 mM sodium phosphate buffers of pH 5.0, 5.5, 6.0, 6.5, 7.4 or 8.0 were used instead of the buffer of pH 7.0. […]

| Molecule | bactericidal activity of free peptide against E. coli (in words) (E. coli DH5α) | LD99 (E. coli DH5α) | isoelectric point (pI) (isoelectric point) | bactericidal activity (in words) [1] | inhibition of RNase activity [2] |
| --- | --- | --- | --- | --- | --- |
| TTRRHFRIT [A-2 domain II peptide] | reduced colony count of E. coli in a dose-dependent manner | 200 µM | 12.8 |  |  |
| SYTGNQFNHRVRVGCWG [A-1 domain III] | no significant activity |  | 9.9 |  |  |
| RYSGNQFNRRVRVGCRG [A-2 domain III peptide] | active | 10 µM | 12.3 | bactericidal |  |
| TRIRTRFHT [scrambled domain II peptide] | reduced the colony count of E. coli to the same degree as the wild type A-2 domain II peptide |  |  |  |  |
| B1 |  |  |  |  | completely inhibited |
